Measurements published in ChEMBL document CHEMBL3507680, “University of Dundee, Gates Library screen for HepG2 cell viability”.

Assay: Human HepG2 cell viability assay in 384 well format
Type: toxicity, cell-based
Set-up: dose 125 nL, time 70.5 hour; concentration not given beside the values
Settings: HepG2 cells, read-out: Inhibition

SMILES	cytotoxicity at 70.5 h
Cn1cnnc1SCC(=O)NC1CC(=O)N(CCc2ccccc2)C1 (stereo not given)	-8.79%
CCN(CC)C(=O)[C@@H]1C[C@@H](NC(=O)c2ccn(C(C)(C)C)c2)CN1C	-4.81%
Cc1cc(C)n(CCC(=O)N2CCCCC2c2nccs2)n1 (stereo not given)	11.9%
Cc1cc(CN(C)CC2(O)CCCN(CCC3CCCCC3)C2=O)no1 (stereo not given)	48.7%
O=C(O)c1cc(-c2cc[nH]n2)cc(S(=O)(=O)N2CCCCCC2)c1	-4.16%
Cc1nonc1CN(C)Cc1c[nH]nc1-c1ccc(F)cc1F	-14.1%
CCc1ncc(C(=O)N2C[C@@H](C)O[C@@H](C)C2)cn1	-5%
Cc1ccc(C(=O)N2CCC(n3cc(CN)nn3)CC2)cc1F	-5.32%
O=C(Cc1c[nH]c(=O)[nH]c1=O)N1CCC2(CCC(=O)N(C3CC3)C2)CC1	0.183%
CN(CCCc1cnn(C)c1)C(=O)Nc1cccc(C#N)c1	-6.3%
Cn1ccnc1-c1nc2cc(S(=O)(=O)N3CCCC3)ccc2n1C	-26.2%
CCc1ccc(CN(C)C(=O)C2CC(=O)N(c3cccc(O)c3)C2)nc1 (stereo not given)	-0.196%
Cc1noc(C)c1CN(C)Cc1cnc(N2CCOCC2)nc1	-4.31%
OCC1CCCCN1Cc1cc(O)c2cccc(F)c2n1 (stereo not given)	20.1%
O=S1(=O)C[C@@H]2[C@H](C1)N(Cc1cc(F)cc(Cl)c1)CCN2CCO	-0.108%
CCCc1nc(N2CCC(CCO)CC2)c2cnn(C)c2n1	-2.39%
O=C(NCc1nnc2n1CCCC2)c1ccc(C2CCCO2)s1 (stereo not given)	18.3%
O=S1(=O)C[C@@H]2[C@H](C1)N(Cc1ccoc1)CCN2Cc1ccncc1	-5.67%
CN1CCC(n2nc(Cc3cccc(Cl)c3)nc2Cn2cnnn2)CC1	27.5%
CNc1ncc(CN(C)C(=O)CCc2cc3n(n2)CCCNC3)cn1	-9.14%
Cc1cnccc1N1CCN(C(=O)C2CC3(CCNCC3)CN2)CC1 (stereo not given)	-5.99%
OCC1(O)CCCN(Cc2ccccc2OCCc2ccccc2)CC1 (stereo not given)	-5.14%

SMILES	cytotoxicity at 70.5 h
CN(C)C[C@@H]1[C@H]2CN(C(=O)c3cc(=O)[nH]c4ccc(F)cc34)C[C@@H]12	22.8%
CN(CCc1ccccc1)C(=O)c1cc(CN2CCC(O)CC2)on1	-5.34%
COCCN(C)CCN1CC2(CCN(C3CCSC3)CC2)OC1=O (stereo not given)	-4.49%
O=C(O)C1CN(Cc2cccc(-c3ccccn3)c2)CCO1 (stereo not given)	-9.06%
CC1(C)CNC(=O)c2nc(-c3n[nH]c(=O)[nH]3)[nH]c2C1	-5.75%
CCN(CC)C(=O)[C@@H]1C[C@@H](N)CN1C(=O)c1cc2c([nH]c1=O)CCC2	-10.8%
Cc1nnsc1C(=O)N(C)Cc1nc(-c2ccccn2)no1	-2.75%
Cn1ncc2c(N3CCS(=O)(=O)CC3)nc(-c3cccnc3)nc21	6.33%
Cc1cccc(NC(=O)N2CCOCC(CN(C)C)C2)c1C (stereo not given)	-6.8%
CN[C@@H](C)C(=O)N(Cc1cccc(C)c1)Cc1ccccc1OC	14.5%
COCCN(Cc1cccnc1)c1nc(C)nc2oc(C)nc12	-5.28%
C[C@@H]1CN(C(=O)c2nc3ccc(Cl)cn3c2-c2ncc[nH]2)C[C@H](C)O1	-14.7%
CCN(CC)C(=O)c1ccc(Cl)c(NC(=O)c2cc[nH]n2)c1	13.3%
CCC[C@@H]1CN(S(=O)(=O)c2ccc(OC)c(OC)c2)C[C@H]1NC(C)=O	6.19%
COCC[C@]1(O)CCN(C(=O)CCc2cnn(C)c2)C[C@H]1C	-7.34%
Cc1ccc(-c2cn[nH]c2C2CCCN(c3ncccn3)C2)cc1 (stereo not given)	22.7%
Cc1cc(CN(C)C(C(=O)O)c2cccc(C(F)(F)F)c2)on1 (stereo not given)	-7.95%
COc1ccc2[nH]c3c(c2c1)CN(c1cc(NCCO)nc(N)n1)CC3	-3.57%
O=C(Nc1ccc(-c2ccccc2)cc1)N1C[C@@H]2CNC[C@]2(C(=O)O)C1	-9.81%
Cc1nc(CC(=O)N2CCCC2c2nc(-c3ccccc3)no2)cs1 (stereo not given)	-3.06%
CCCNCc1ccc(-c2ccnc3[nH]ccc23)cc1	29.1%
CN(Cc1ccccc1-n1cccn1)C[C@@H]1CCCN2CCCC[C@H]12	-8.12%

SMILES	cytotoxicity at 70.5 h
CCCc1nccn1-c1ccncc1	-5.45%
Cc1nn(C)c(C)c1CCC(=O)N1CCN(CCn2cncn2)CC1	14.9%
Cc1ccc(CCNC(=O)Cn2nc(C)n(Cc3ccccc3)c2=O)o1	19.8%
CC(CNC(=O)c1cc(Cn2cnc3ccccc32)[nH]n1)N1CCCC1 (stereo not given)	-7.82%
Cc1c[nH]c(CN2CCC3(CCCN(Cc4ccc(F)c(F)c4)C3)C2)n1 (stereo not given)	0.269%
CC(C)S(=O)(=O)N1CCOC(CCc2ccccc2)C1 (stereo not given)	-8.39%
CCCn1ccnc1CN1CCCC(O)(CN2CCCC2)C1 (stereo not given)	-2.63%
CC(C)C1CN(c2cnccn2)CCC(=O)N1Cc1ccc(F)cc1 (stereo not given)	-0.619%
Cc1cccc(=O)n1CCC(=O)N1CC[C@](C)(O)[C@H](C)C1	-9.5%
Cc1ccc(F)cc1-n1c(COC(C)C)n[nH]c1=O	-5.58%
CC(C)Cc1cc(C(=O)N2CCC(Oc3cccnc3)CC2)n(C)n1	-8.18%
CNS(=O)(=O)c1ccc(CN2CCCC2c2ccc(F)cc2)cc1 (stereo not given)	-5.9%
Cc1ccc2[nH]c(CN(C)c3cc(CN)nc(C)n3)nc2c1	0.934%
CCc1nnc(CN(C)Cc2cccc(C(=O)Nc3ccnn3C)c2)o1	1.53%
CN1CCC(O)(CNC(=O)c2cc(COc3cccc(F)c3)[nH]n2)CC1	-6.87%
Cc1nc(N)ncc1C(=O)N1CCCC(CCc2ccccc2F)C1 (stereo not given)	17%
O=C(C1CCCCO1)N1CCc2ncnc(NCCO)c2CC1 (stereo not given)	-2.71%
CCOc1ccc(C(=O)N2CCCC(c3nccn3C)C2)cc1OCC (stereo not given)	-5.34%
CCc1nn(C)c(Cl)c1CN1C[C@@H](NC(=O)N(C)C)[C@H](C(C)C)C1	-5.68%
COc1ccc(F)c(F)c1CN1CC(=O)N(c2ccccc2C)CC1C (stereo not given)	-11.4%
Cc1cc2[nH]c(CN3CCOC(C(F)(F)F)C3)cc(=O)n2n1 (stereo not given)	17.8%
Cc1cc2nc(C(C)C)cc(NC(C)c3nncn3C3CCCC3)n2n1 (stereo not given)	-11.7%

SMILES	cytotoxicity at 70.5 h
COc1cccc2c1OCCCN(c1nc(C)nc3c1CCNCC3)C2	-5.98%
O=C(NCC1=CCCCC1)C(c1cccnc1)N1CCCC1 (stereo not given)	31.3%
CCn1c(C2CCN(C(=O)c3cc(C4CC4)on3)CC2)nn(C)c1=O	-6.56%
CCc1nc2c(c(NC3CC3)n1)CCN(C(=O)N1CCN(C)CC1)CC2	-19.1%
Cc1cccc2c(CCNC(=O)[C@H](N)c3ccccc3)c[nH]c12	-17.6%
Cc1cc(-n2nc(C3CC3)nc2-c2csnn2)ccn1	-10.1%
CC(C)(O)CCc1ccc(C(=O)NCCC2CCCOC2)cc1 (stereo not given)	-0.926%
CN(Cc1n[nH]c2c1CCCCC2)C(=O)c1cc(-c2cccn2C)n[nH]1	-5.14%
NC(=O)NCCC(=O)N1CCC(c2cc(Cc3ccccc3)n[nH]2)CC1	-6.87%
CC1=C(C(=O)NCCc2n[nH]c3c2CCCC3)C(C)NC(=O)N1 (stereo not given)	14.6%
O=C(NC1CCCN(CCCc2ccccc2)C1)C1=CCCCC1 (stereo not given)	-0.678%
CN(C)CCC1CCCCN1Cc1cnc(-c2ccccn2)nc1 (stereo not given)	-3.63%
Cc1ncsc1C(=O)N1CCn2nc(CN3CCSCC3)cc2C1	-1.17%
c1ccc(CCN2CCN(c3ncnc4[nH]ccc34)CC2)cc1	-3.03%
CC(C)CCN1CC2(CCCN(C(=O)CNC(=O)N(C)C)C2)CCC1=O (stereo not given)	-10.1%
CC(C)=CCN1CCN(Cc2cc(C)n[nH]2)CC1CCO (stereo not given)	4.87%
CCC(=O)N1Cc2nnc(C3CCOCC3)n2C(Cc2c[nH]cn2)C1 (stereo not given)	-7.01%
c1ccc2sc(N3CCN(c4ncnc5c4CCC5)CC3)nc2c1	13.8%
COCCN(C)C(=O)c1ccccc1-n1cccn1	5.05%
COC(=O)N1CCCCC1C(=O)N1CCCN(c2ccnc(C)c2)CC1 (stereo not given)	-7.79%
COc1cc(-c2nccn2C(C)CCn2cccn2)cc2c1OCO2 (stereo not given)	1.97%
Cc1cc(NCCSc2nccn2C)n2nc(C)c(C)c2n1	-4.55%

SMILES	cytotoxicity at 70.5 h
O=c1cc(CN2CCCCC2c2cccc(F)c2)[nH]c2ncnn12 (stereo not given)	-10.8%
O=c1c2cccc(Cl)c2ncn1C1CCNC1 (stereo not given)	-10.4%
CSCCC(O)C(=O)N1CCCN(Cc2ccc(F)cc2)CC1 (stereo not given)	8.69%
Cc1cccc2[nH]c(C3CCCN(Cc4ccccc4C(=O)O)C3)nc12 (stereo not given)	8.18%
c1ccc(CN(Cc2cccc3cnccc23)CC2CCCO2)nc1 (stereo not given)	-7.22%
C[C@@H]1CN(CCC(=O)N(C)Cc2ccccc2)C[C@@]1(O)C1CCC1	-7.64%
CN(Cc1cccnc1)c1nccc(N2CCN[C@H]3CS(=O)(=O)C[C@H]32)n1	-3.96%
COc1cccc(N2CCN(Cc3ccc4ccn(C)c4c3)CC2=O)c1	-5.61%
CN(C)C(C(=O)N1CC(c2ccccn2)C1)c1ccc2c(c1)OCO2 (stereo not given)	-3.16%
COc1ccccc1OCc1cc(C(=O)N2CCOCC2CO)n[nH]1 (stereo not given)	-5.23%
COc1cc(Oc2cnc3ccccc3n2)ccc1CN1CCCC1	-3.39%
CC(=O)N1C[C@H]2CNC[C@@]2(C(=O)NCCCOc2cccnc2)C1	20%
C[C@@H]1CN(S(=O)(=O)N2CCCC2)CC[C@@]1(O)C1CCOCC1	-14%
N#Cc1c(N)nc2c(c1-c1c[nH]nc1C1CCCCC1)CNCC2	18.5%
O=c1cc(N2CCOCC2)cnn1CCc1ccc(F)cc1	-1.15%
CCC(=O)c1ccc(OCC(=O)N(C)C(C)c2ccon2)cc1 (stereo not given)	-13.2%
O=C1NCCCC[C@@H]1Nc1ccc(-c2nc(C3CC3)no2)cn1	-2.61%
C=Cc1ccc(C(=O)NC2CCCc3nc(N(C)C)ncc32)cc1 (stereo not given)	16.1%
Cc1cccc(-c2nc3cc(S(=O)(=O)N4CCCC4)ccc3n2C)n1	-10.3%
Cn1nc(C2CC2)c2c1NC(=O)CC2c1ccc(CN2CCCCC2)s1 (stereo not given)	-3.05%
COc1ccc(-c2ccnc(N)c2)c(C)c1	-15.9%
CS(=O)(=O)N1CCc2[nH]cnc2C12CCN(C(=O)c1cccnc1)CC2	-0.221%
